Data as given in US12568969B2, “Pyridine compounds for controlling invertebrate pests” (FMC Corporation, priority 2020, dated 2026).

How the values were obtained:
Format in all cases: in vivo
[1] = system: green peach aphid (Myzus persicae (Sulzer)); experiment: Test D: control of green peach aphid on radish plant, spray; conditions: Myzus persicae, 144 h, 6 days; for mortality at 50 ppm: sprayed at 50 ppm; for mortality at 250 ppm: sprayed at 250 ppm
Experimental: (§1) Test compounds were formulated using a solution containing 10% acetone, […] and 300 ppm Activator 909 non-ionic surfactant (Loveland Products, Loveland, Colorado, USA). The formulated compounds were applied in 1 mL of liquid through an atomizer nozzle positioned 1.27 cm (0.5 inches) above the top of each test unit. Test compounds were sprayed at the rates indicated, and each test was replicated three times.
For evaluating control of green peach aphid (Myzus persicae (Sulzer)) through contact and/or systemic means, the test unit consisted of a small open container with a 12-15-day-old radish plant inside. This was pre-infested by placing on a leaf of the test plant 30-40 aphids on a piece of leaf excised from a culture plant (cut-leaf method). The aphids moved onto the test plant as the leaf piece desiccated. After pre-infestation, the soil of the test unit was covered with a layer of sand.
[…] After spraying of the formulated test compound, each test unit was allowed to dry for 1 hour and then a black, screened cap was placed on top. The test units were held for 6 days in a growth chamber at 19-21° C. and 50-70% relative humidity. Each test unit was then visually assessed for insect mortality.

[2] = system: cotton melon aphid (Aphis gossypii (Glover)); experiment: whole plant or invertebrate; conditions: Aphis gossypii, 144 h, 6 days; for mortality at 250 ppm: sprayed at 250 ppm; for mortality at 50 ppm: sprayed at 50 ppm
Experimental: as §1
[…] This was pre-infested with 30-40 insects on a piece of leaf according to the cut-leaf method, and the soil of the test unit was covered with a layer of sand.
Test compounds were formulated and sprayed at 250 and/or 50 ppm. After spraying, the test units were maintained in a growth chamber for 6 days at 19° C. and 70% relative humidity. Each test unit was then visually assessed for insect mortality.

[3] = system: corn planthopper (Peregrinus maidis (Ashmead)); experiment: whole plant or invertebrate; conditions: Peregrinus maidis, 144 h, 6 days; for mortality at 50 ppm: sprayed at 50 ppm; for mortality at 250 ppm: sprayed at 250 ppm; for mortality at 10 ppm: sprayed at 10 ppm
Experimental: as §1
For evaluating control of corn planthopper (Peregrinus maidis (Ashmead)) through contact and/or systemic means, the test unit consisted of a small open container with a 3-4-day-old corn (maize) plant inside. White sand was added to the top of the soil prior to application of the test compound.
Test compounds were formulated and sprayed at 250 and/or 50 ppm and/or 10 ppm. After spraying of the formulated test compound, the test units were allowed to dry for 1 h before they were post-infested with ˜15-20 nymphs (18-to-21-day-old). A black, screened cap was placed on the top of each test unit, and the test units were held for 6 days in a growth chamber at 22-24° C. and 50-70% relative humidity. Each test unit was then visually assessed for insect mortality.

Fc1cncc(-n2cncn2)c1C(F)c1ccc(SC(F)(F)F)cc1 (stereo not drawn) [Compound 2]
≥ 80%: mortality at 50 ppm [1] | mortality at 250 ppm [1] | mortality at 250 ppm [2] | mortality at 50 ppm [3] | mortality at 250 ppm [3]

Cc1ccn(-c2cncc(F)c2C(F)c2ccc(SC(F)(F)F)cc2)n1 (stereo not drawn) [Compound 5]
≥ 80%: mortality at 250 ppm [1] | mortality at 50 ppm [3] | mortality at 250 ppm [3]

Cc1cnn(-c2cncc(F)c2C(F)c2ccc(SC(F)(F)F)cc2)c1 (stereo not drawn) [Compound 6]
≥ 80%: mortality at 50 ppm [3] | mortality at 250 ppm [3]

FC(c1ccc(OC(F)(F)F)cc1)c1ccncc1-n1ccnn1 (stereo not drawn) [Compound 10]
≥ 80%: mortality at 50 ppm [3] | mortality at 250 ppm [3]

COC(c1ccc(OC(F)(F)F)cc1)c1c(Cl)cncc1-n1nccn1 (stereo not drawn) [Compound 16]
≥ 80%: mortality at 50 ppm [1] | mortality at 250 ppm [1] | mortality at 50 ppm [2] | mortality at 250 ppm [2] | mortality at 50 ppm [3] | mortality at 250 ppm [3]

Fc1cncc(-c2ccc[nH]2)c1C(F)c1ccc(OC(F)(F)F)cc1 (stereo not drawn) [Compound 26]
≥ 80%: mortality at 50 ppm [3] | mortality at 250 ppm [3]

Cc1cncc(-n2nccn2)c1C(F)c1ccc(OC(F)(F)F)cc1 (stereo not drawn) [Compound 38]
≥ 80%: mortality at 250 ppm [1] | mortality at 50 ppm [2] | mortality at 250 ppm [2] | mortality at 10 ppm [3] | mortality at 50 ppm [3] | mortality at 250 ppm [3]

Fc1cncc(-c2nc[nH]n2)c1C(F)c1ccc(OC(F)(F)F)cc1 (stereo not drawn) [Compound 40]
≥ 80%: mortality at 50 ppm [3]

Fc1cncc(-c2ccsc2)c1C(F)c1ccc(OC(F)(F)F)cc1 (stereo not drawn) [Compound 46]
≥ 80%: mortality at 10 ppm [3] | mortality at 50 ppm [3]

Fc1cncc(-c2cscn2)c1C(F)c1ccc(OC(F)(F)F)cc1 (stereo not drawn) [Compound 49]
≥ 80%: mortality at 250 ppm [2] | mortality at 10 ppm [3] | mortality at 50 ppm [3] | mortality at 250 ppm [3]

COC(c1ccc(OC(F)(F)F)cc1)c1c(Cl)cncc1-n1cccn1 (stereo not drawn) [Compound 52]
≥ 80%: mortality at 250 ppm [2]

O=S(=O)(c1ccc(C(F)c2c(F)cncc2-n2nccn2)cc1)C(F)(F)F (stereo not drawn) [Compound 54]
≥ 80%: mortality at 50 ppm [1] | mortality at 250 ppm [1] | mortality at 50 ppm [2] | mortality at 250 ppm [2]

CCn1ccc(-c2cncc(F)c2C(F)c2ccc(OC(F)(F)F)cc2)n1 (stereo not drawn) [Compound 57]
≥ 80%: mortality at 250 ppm [2] | mortality at 50 ppm [3]

O=S(=O)(c1ccc(C(F)c2c(Br)cncc2-n2nccn2)cc1)C(F)(F)F (stereo not drawn) [Compound 64]
≥ 80%: mortality at 250 ppm [2] | mortality at 50 ppm [3]

COC(c1ccc(OC(F)(F)F)cc1)c1c(Br)cncc1-n1nccn1 (stereo not drawn) [Compound 65]
≥ 80%: mortality at 50 ppm [3]

FC(c1ccc(SC(F)(F)F)cc1)c1ccncc1-n1ccnn1 (stereo not drawn) [Compound 68]
≥ 80%: mortality at 250 ppm [1] | mortality at 50 ppm [2] | mortality at 250 ppm [2]

COC(c1ccc(SC(F)(F)F)cc1)c1c(F)cncc1-n1cccn1 (stereo not drawn) [Compound 70]
≥ 80%: mortality at 250 ppm [1] | mortality at 50 ppm [2] | mortality at 250 ppm [2] | mortality at 10 ppm [3] | mortality at 50 ppm [3] | mortality at 250 ppm [3]

COC(c1ccc([S+]([O-])C(F)(F)F)cc1)c1c(F)cncc1-n1cccn1 (stereo not drawn) [Compound 72]
≥ 80%: mortality at 250 ppm [1] | mortality at 250 ppm [2]

[O-][S+](c1ccc(C(F)c2c(F)cncc2-n2cccn2)cc1)C(F)(F)F (stereo not drawn) [Compound 73]
≥ 80%: mortality at 50 ppm [2] | mortality at 250 ppm [2]

COC(c1ccc([S+]([O-])C(F)(F)F)cc1)c1c(F)cncc1-n1cncn1 (stereo not drawn) [Compound 74]
≥ 80%: mortality at 50 ppm [1] | mortality at 250 ppm [1] | mortality at 50 ppm [2] | mortality at 250 ppm [2]

COC(c1ccc(SC(F)(F)F)cc1)c1c(F)cncc1-c1nccs1 (stereo not drawn) [Compound 75]
≥ 80%: mortality at 250 ppm [2] | mortality at 250 ppm [3]

COC(c1ccc(SC(F)(F)F)cc1)c1c(F)cncc1-c1ncco1 (stereo not drawn) [Compound 76]
≥ 80%: mortality at 50 ppm [2] | mortality at 250 ppm [2] | mortality at 50 ppm [3] | mortality at 250 ppm [3]

Fc1cncc(-c2nccs2)c1C(F)c1ccc(SC(F)(F)F)cc1 (stereo not drawn) [Compound 77]
≥ 80%: mortality at 250 ppm [1] | mortality at 250 ppm [2] | mortality at 50 ppm [3] | mortality at 250 ppm [3]

COC(c1ccc(SC(F)(F)F)cc1)c1c(F)cncc1-c1cc(C)no1 (stereo not drawn) [Compound 82]
≥ 80%: mortality at 250 ppm [3]

COC(c1ccc(SC(F)(F)F)cc1)c1c(F)cncc1-c1ncon1 (stereo not drawn) [Compound 83, 3-[5-fluoro-4-[methoxy-[4-(trifluoromethylsulfanyl)phenyl]methyl]-3-pyridyl]-1,2,4-oxadiazole]
≥ 80%: mortality at 250 ppm [1] | mortality at 50 ppm [2] | mortality at 250 ppm [2] | mortality at 50 ppm [3] | mortality at 250 ppm [3]

FC(c1ccc(SC(F)(F)F)cc1)c1c(Br)cncc1-n1cccn1 (stereo not drawn) [Compound 85]
≥ 80%: mortality at 50 ppm [2] | mortality at 250 ppm [2] | mortality at 50 ppm [3] | mortality at 250 ppm [3]

FC(c1ccc(SC(F)(F)F)cc1)c1c(Br)cncc1-n1nccn1 (stereo not drawn) [Compound 86]
≥ 80%: mortality at 50 ppm [1] | mortality at 250 ppm [1] | mortality at 50 ppm [2] | mortality at 250 ppm [2] | mortality at 50 ppm [3] | mortality at 250 ppm [3]

FC(c1ccc(SC(F)(F)F)cc1)c1c(Br)cncc1-n1ccnn1 (stereo not drawn) [Compound 87]
≥ 80%: mortality at 250 ppm [1]

[O-][S+](c1ccc(C(F)c2c(I)cncc2-n2nccn2)cc1)C(F)(F)F (stereo not drawn) [Compound 97]
≥ 80%: mortality at 250 ppm [1] | mortality at 50 ppm [2] | mortality at 250 ppm [2]

Fc1cncc(C2OCCCO2)c1C(F)c1ccc(SC(F)(F)F)cc1 (stereo not drawn) [Compound 98]
≥ 80%: mortality at 10 ppm [3] | mortality at 50 ppm [3] | mortality at 250 ppm [3]

FC(c1ccc(SC(F)(F)F)cc1)c1c(Cl)cncc1-n1cccn1 (stereo not drawn) [Compound 102]
≥ 80%: mortality at 50 ppm [2] | mortality at 250 ppm [2]

FC(c1ccc(SC(F)(F)F)cc1)c1c(Cl)cncc1-c1ncno1 (stereo not drawn) [Compound 106]
≥ 80%: mortality at 50 ppm [2] | mortality at 250 ppm [2] | mortality at 10 ppm [3] | mortality at 50 ppm [3] | mortality at 250 ppm [3]

CC(C)(C)c1ccc(C(F)c2c(Cl)cncc2-n2nccn2)cc1 (stereo not drawn) [Compound 110]
≥ 80%: mortality at 10 ppm [3] | mortality at 50 ppm [3] | mortality at 250 ppm [3]

Fc1cncc(-c2cccs2)c1C(F)c1ccc(SC(F)(F)F)cc1 (stereo not drawn) [Compound 111]
≥ 80%: mortality at 50 ppm [2] | mortality at 250 ppm [2] | mortality at 10 ppm [3] | mortality at 50 ppm [3] | mortality at 250 ppm [3]

Cc1sccc1-c1cncc(F)c1C(F)c1ccc(SC(F)(F)F)cc1 (stereo not drawn) [Compound 113]
≥ 80%: mortality at 50 ppm [2] | mortality at 250 ppm [2] | mortality at 10 ppm [3] | mortality at 50 ppm [3] | mortality at 250 ppm [3]

Cc1cscc1-c1cncc(F)c1C(F)c1ccc(SC(F)(F)F)cc1 (stereo not drawn) [Compound 114]
≥ 80%: mortality at 10 ppm [3] | mortality at 50 ppm [3] | mortality at 250 ppm [3]

COC(c1ccc(OC(F)(F)F)cc1)c1c(F)cncc1-c1ncno1 (stereo not drawn) [Compound 138]
≥ 80%: mortality at 50 ppm [3] | mortality at 250 ppm [3]

COC(c1ccc(C(C)(C)C)cc1)c1c(F)cncc1-c1ncno1 (stereo not drawn) [Compound 139]
≥ 80%: mortality at 50 ppm [3] | mortality at 250 ppm [3]
